Reference: patent US11801232B2, “Targeting of ARID1A-deficient cancers by inhibiting de novo pyrimidine synthesis pathway” (YALE UNIVERSITY, priority 2019, dated 2023)
Like-named read-outs stand apart in the source and are kept apart here.

Key:
Test in all cases: Cytotoxicity (SRB) assay with CalcuSyn combination analysis
Format in all cases: cell-based
JHOC-5 cells = conditions: Homo sapiens, Table 5, single drug, median effect, read-out: Dm
Description: (§1) Cytotoxicity assay. Cells were seeded in 96-well plates, with 2000 cells in 100 μL/well, and cultured for 24 h. The cells were treated with serial dilutions of drugs or without drug for an additional 72 h. Cell number was determined using a sulforhodamine B (SRB) assay, as previously described^23. Briefly, cells were fixed with 20% trichloroacetic acid (TCA), air-dried, and stained with 0.4% SRB dissolved in 1% acetic acid. After washing, protein-bound dye was solubilized with 10 mM unbuffered Tris-base solution (pH 10.5) and detected at 510 nm using a microplate reader. Percentage of cell-growth was calculated using the following formula: % cell growth=[(Absorbance sample)/(Absorbance untreated)]×100
(§2) Using CalcuSyn software (Biosoft), dose-effect curves were generated, and drug concentrations corresponding to a 50% decrease in cell number (IC50) were determined.
(§3) The drug concentrations corresponding to a median effect (Dm) are shown for each treatment; teriflunomide concentration is shown for combination (Combo) treatment at a 10:1 fixed molar ratio of two drugs, teriflunomide and AZD6738. […] CIwt<0.8, =0.8 to 1.2, and >1.2 indicates synergism, an additive effect, and antagonism, respectively. A CIwt value was calculated using the formula: CIwt=(ED50+2ED75+3ED90)/6. Datasets from at least three independent experiments were combined, and each table cell contains the mean value±SD.

HEC-1A cells = conditions: Homo sapiens, Table 6, single drug, median effect, read-out: Dm
Description: as §1, §2, §3

A2780 cells = conditions: Homo sapiens, Table 4, single drug, median effect, read-out: Dm
Description: as §1, §2
as §3, with “Drug concentrations corresponding” for “The drug concentrations corresponding”, “shown for a combination (Combo)” for “shown for combination (Combo)”, “and >1.2 indicate synergism, an” for “and >1.2 indicates synergism, an”

ES2 shARID1A (a) cells = conditions: Homo sapiens, read-out: Dm
Description: (§4) Short Hairpin RNA (shRNA)-Mediated Knockdown and Expression of ARID1A in ovarian and endometrial carcinoma cells. shRNA lentiviral supernatants were produced using standard protocols, as previously described^8. Vectors were transfected into HEK293FT cells using X-tremeGENE 9 DNA Transfection Reagent (from Roche). Retroviral supernatants isolated at 48 h were diluted 1:1 in culture medium and used to infect ARID1A-wildtype ES2 and KLE cell lines. Stably transfected subclones were expanded using puromycin (from Dot Scientific) drug selection. For expression of ARID1A in the ARID1A-mutant HEC-1-A cell line, pCIN4-HA-ARID1A was transfected using X-tremeGENE 9 DNA Transfection Reagent (from Roche), followed by selection with G418 (from Gibco). For expression of ARID1A in the ARID1A-mutant SKOV3 and OVISE cell lines, V5/His-tagged pLenti-puro-LacZ and pLenti-puro-ARID1A were transfected using lentivirus. Lentivirus was produced using HEK293FT cells with the second-generation packaging system pSPAX2 (Addgene plasmid) and pMD2.G (Addgene plasmid). Stably transfected subclones were expanded using puromycin and blasticidin (Gibco) drug selection.
as §1, §2
(§5) Drug concentrations corresponding to a median effect (Dm) are shown for each treatment; teriflunomide concentration is shown for combination (Combo) treatment at a 10:1 fixed molar ratio of two drugs, teriflunomide and AZD6738. […] Datasets from at least three independent experiments were combined, and each table cell contains the mean value±SD. SCR, ES2-shScrambled. N/A, not applicable. Statistical analysis was carried out by one-way ANOVA with Bonferroni's post-hoc test, and differences were considered significant at **P<0.01 and ***P<0.001 as compared to the ES2 parental group with the same drug treatment.
(§6) Drug concentrations (in μM for teriflunomide, in nM for […]) corresponding to median effect (Dm) are shown for each treatment; teriflunomide concentration is shown for combination (Combo) treatment at a 200:1 fixed molar ratio of the two drugs, teriflunomide and VX-970. […] CIwt<0.8, =0.8 to 1.2, and >1.2 indicates synergism, an additive effect, and antagonism, respectively. CIwt value was calculated using the formula: CIwt=(ED50+2ED75+3ED90)/6. Datasets from at least three independent experiments were combined, and each table cell contains the mean value±SD. Teri, teriflunomide. SCR, ES2-shScrambled. N/A, not applicable. Statistical analysis was carried out by one-way ANOVA with Bonferroni's post-hoc test, and differences were considered significant at ***P<0.001 as compared to the ES2 parental group with the same drug treatment.

ES2 shARID1A (b) cells = conditions: Homo sapiens, read-out: Dm
Description: as §4, §1, §2, §5, §6

[1] = system: ES2-shScrambled (SCR) cells; conditions: Homo sapiens, read-out: Dm
Description: as §4, §1, §2, §5, §6

OVISE cells, LacZ = conditions: Homo sapiens, Table 3, single drug, read-out: Dm
Description: as §4, §1, §2
(§7) CIwt<0.8, =0.8 to 1.2, and >1.2 indicates synergism, an additive effect, and antagonism, respectively. A CIwt value was assigned as follows: (ED50+2ED75+3ED90)/6. Datasets from at least three independent experiments were combined, and means±SD were calculated for each combination. Teri, teriflunomide. N/A, not applicable. Statistical analysis was carried out by one-way ANOVA with Bonferroni's post-hoc test, and differences were considered significant at ***P<0.001 as compared to the ARID1A restoration group induced by doxycycline with the same drug treatment.

[2] = system: ARID1A-restoration OVISE cells (ARID1A Dox); conditions: Homo sapiens, Table 3, single drug, read-out: Dm
Description: as §4, §1, §2, §7

OVISE cells, LacZ Dox = conditions: Homo sapiens, Table 3, single drug, read-out: Dm
Description: as §4, §1, §2, §7

[3] = system: OVISE cells, ARID1A (not induced); conditions: Homo sapiens, Table 3, single drug, read-out: Dm
Description: as §4, §1, §2, §7

[4] = Table 1, single drug, median effect

Structure (SMILES)	IC50 (JHOC-5 cells) [µM]	IC50 (HEC-1A cells) [µM]	IC50 (A2780 cells) [µM]	IC50 (ES2 shARID1A (a) cells; [4]) [µM]	IC50 (ES2 shARID1A (b) cells; [4]) [µM]	IC50 [1, 4] [µM]	IC50 (OVISE cells, LacZ) [µM]	IC50 [2] [µM]	IC50 (OVISE cells, LacZ Dox) [µM]	IC50 [3] [µM]	IC50 (ES2 shARID1A (a) cells; Table 2, teriflunomide alone) [µM]	IC50 (ES2 shARID1A (b) cells; Table 2, teriflunomide alone) [µM]	IC50 ([1]; Table 2, teriflunomide alone) [µM]
C[C@@H]1COCCN1c1cc(C2([S@](C)(=N)=O)CC2)nc(-c2cc[nH]c3nccc2-3)n1 [AZD6738]	2.91 ± 0.76	4.47 ± 0.45	5.54 ± 1.06	0.2 ± 0.01	0.24 ± 0.03	1.18 ± 0.17	0.7 ± 0.03	6.99 ± 0.34	0.67 ± 0.11	0.77 ± 0.16			
C/C(O)=C(\C#N)C(=O)Nc1ccc(C(F)(F)F)cc1 [Teriflunomide, teriflunomide]	25.2 ± 1.85	50.5 ± 4.99	18.9 ± 1.39	17.9 ± 1.32	16.8 ± 0.92	28.2 ± 1.59	18.2 ± 1.19	109 ± 3.18	19.3 ± 1.24	19.1 ± 1.07	15.6 ± 1.79	15.5 ± 3.11	26.7 ± 1.26
